How the values were obtained:
[1] = physchem
Protocol: Measurement of the water solubility of the test compounds is accomplished by using methods well known to those skilled in the art. […] The total volume of the solution is measured. […] This is a clear indication of an unexpectedly high degree of bioavailability of the compositions of the invention. Highly water soluble medicinal preparations, when administered orally, result in efficient absorption of such preparations from the gastrointestinal tract into systemic circulation. Such preparations permit rapid absorption into the blood stream resulting in a high concentration of the active agent in the blood. Furthermore, water soluble preparations are especially suitable for parenteral administration, for example, intravenous administration.

[2] = Air and light sensitivity observed on isolation and storage; type: physicochemical; conditions: isolated solid; therefore stored in an amber vial under nitrogen
Protocol: The reaction flask was covered in foil to protect it from light. After stirring for 1 h at room temperature, the mixture was chilled to 0° C. for 1 h, and then filtered under an atmosphere of nitrogen. The solid was washed with 50 mL ice-cold acetonitrile and then quickly transferred to a foil-covered round bottom flask and placed under high vac.

CC/C=C\C/C=C\C/C=C\C/C=C\C/C=C\CCCC(=O)O [EPA, (5Z,8Z,11Z,14Z,17Z)-eicosa-5,8,11,14,17-pentaenoic acid, reference compound]
solubility ([1]; water, thermodynamic from solid): < 200 µg/mL

CC/C=C\C/C=C\C/C=C\C/C=C\C/C=C\CCCC(=O)O.CN(C)C(=N)NC(=N)N [Example 1, {[Amino(imino)methyl]amino}(dimethylamino)methaniminium (5Z,8Z,11Z,14Z,17Z)-eicosa-5,8,11,14,17-pentaenoate]
sensitivity to air and light [2]: air and light sensitive
times more soluble in water than EPA ([1]; ratio of water solubility versus EPA itself): ≥ 250 times

From patent publication US9012507B2, “Lipid-lowering antidiabetic agent” (Thetis Pharmaceuticals LLC, priority 2011, dated 2015)
